Experimental findings from patent US8716297B2, “Chemical entities to be used for Wee1 inhibition for the treatment of cancer” (AbbVie Inc., priority 2011, dated 2014) are described below.

T1 sequence (P30291 whole entry): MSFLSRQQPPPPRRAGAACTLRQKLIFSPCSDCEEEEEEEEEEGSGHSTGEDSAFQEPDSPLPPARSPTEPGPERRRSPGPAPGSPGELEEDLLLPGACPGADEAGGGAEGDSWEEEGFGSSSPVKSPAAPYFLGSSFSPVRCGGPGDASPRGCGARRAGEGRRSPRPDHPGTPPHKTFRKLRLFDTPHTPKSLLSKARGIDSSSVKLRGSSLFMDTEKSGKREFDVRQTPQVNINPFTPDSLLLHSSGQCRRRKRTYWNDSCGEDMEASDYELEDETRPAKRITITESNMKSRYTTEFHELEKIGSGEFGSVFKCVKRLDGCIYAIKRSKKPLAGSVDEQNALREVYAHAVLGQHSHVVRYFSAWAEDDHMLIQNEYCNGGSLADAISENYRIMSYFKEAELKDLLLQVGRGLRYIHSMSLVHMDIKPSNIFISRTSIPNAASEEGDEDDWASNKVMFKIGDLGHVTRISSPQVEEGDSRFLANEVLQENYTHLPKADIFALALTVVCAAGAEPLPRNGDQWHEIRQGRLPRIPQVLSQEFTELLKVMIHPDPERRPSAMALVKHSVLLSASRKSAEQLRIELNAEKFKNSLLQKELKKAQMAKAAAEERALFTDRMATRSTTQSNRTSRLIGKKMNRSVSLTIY

This assay has as its target T1, GST-tagged-Wee1 kinase (Homo sapiens, UniProt P30291).
T1 construct: purchased Carnabio 05-177
The experiment in a line: Wee1 time-resolved fluorescence equilibrium binding assay (displacement of Oregon Green-labeled ATP-competitive probe). The following applies: TR-FRET probe displacement; 2 nM GST-Wee1, 300 nM probe, 1 hour incubation; read-out: Wee-1 binding (Ki nM). On the procedure:
Wee1 kinase was assayed using a time-resolved fluorescence equilibrium binding assay monitoring displacement of a rapidly reversible Oregon Green-labeled ATP-competitive kinase probe (N-(2-(2-(2-(4-(4-(5-chloro-4-(2-(1-hydroxycyclobutyl)thiazol-5-yl)-1H-pyrrolo[2,3-b]pyridin-2-yl)phenyl)piperazin-1-yl)ethoxy)ethoxy)ethyl)-2′,7′-difluoro-3′,6′-dihydroxy-3-oxo-3H-spiro[isobenzofuran-1,9′-xanthene]-5-carboxamide) by competitive Wee1 inhibitors.
Background: TR-FRET usually uses a lanthanide donor and a delayed reading to cut background.
In general, Ki refers to a dissociation constant, usually derived from enzyme kinetics or from competition with a known ligand. On to `C=CCN1c2ncccc2-c2nc(Nc3ccc(N4CCNCC4)c(C(F)(F)F)c3)ncc2S1(=O)=O` [Example 51, 6-allyl-N-[4-(piperazin-1-yl)-3-(trifluoromethyl)phenyl]-6H-pyrido[2,3-c]pyrimido[4,5-e][1,2]thiazin-2-amine 5,5-dioxide], for which the Ki worked out at 14 nM.

Take `C=CCN1c2ccccc2-c2nc(Nc3ccc(N4CCN(C)CC4)cc3)ncc2S1(=O)=O` [Example 1, 6-allyl-N-[4-(4-methylpiperazin-1-yl)phenyl]-6H-pyrimido[5,4-c][2,1]benzothiazin-2-amine 5,5-dioxide]: the inhibition constant Ki worked out at 1.8 nM.

For `CCCN1c2cc(-n3cncn3)ccc2-c2nc(Nc3ccc(N4CCN(C)CC4)cc3)ncc2S1(=O)=O` [Example 94, N-[4-(4-methylpiperazin-1-yl)phenyl]-6-propyl-8-(1H-1,2,4-triazol-1-yl)-6H-pyrimido[5,4-c][2,1]benzothiazin-2-amine 5,5-dioxide], the Ki was found to be 7 nM.

In the case of `CN1c2ccccc2-c2nc(Nc3ccc(N4CCOCC4)cc3)ncc2S1(=O)=O` [Example 57, 6-methyl-N-[4-(morpholin-4-yl)phenyl]-6H-pyrimido[5,4-c][2,1]benzothiazin-2-amine 5,5-dioxide], the Ki is 12 nM.

For `C=CCN1c2ccccc2-c2nc(Nc3ccc4c(c3)NC(=O)CO4)ncc2S1(=O)=O` [Example 6, 6-[(6-allyl-5,5-dioxido-6H-pyrimido[5,4-c][2,1]benzothiazin-2-yl)amino]-2H-1,4-benzoxazin-3(4H)-one], the Ki turned out to be 47 nM.

Consider `C=CCN1c2ncccc2-c2nc(Nc3ccc4c(c3)CN(C)CC43CC3)ncc2S1(=O)=O` [Example 47, 6-allyl-N-(2′-methyl-2′,3′-dihydro-1′H-spiro[cyclopropane-1,4′-isoquinolin]-7′-yl)-6H-pyrido[2,3-c]pyrimido[4,5-e][1,2]thiazin-2-amine 5,5-dioxide], for which the Ki stood at 1.3 nM.

For `C=CCN1c2ncccc2-c2nc(Nc3ccc(N4CCNCC4)cn3)ncc2S1(=O)=O` [Example 103, N-[5-(piperazin-1-yl)pyridin-2-yl]-6-(prop-2-en-1-yl)-6H-pyrido[2,3-c]pyrimido[4,5-e][1,2]thiazin-2-amine 5,5-dioxide], the Ki is 110 nM.

Take `CN1CCN(c2ccc(Nc3ncc4c(n3)-c3sccc3N(C)S4(=O)=O)cc2)CC1` [Example 55, 6-methyl-N-[4-(4-methylpiperazin-1-yl)phenyl]-6H-pyrimido[4,5-e]thieno[3,2-c][1,2]thiazin-2-amine 5,5-dioxide]: the inhibitory constant (Ki) is 8 nM.

As for `CCCN1c2cc(C(N)=O)ccc2-c2nc(Nc3ccc(N4CCN(C)CC4)cc3)ncc2S1(=O)=O` [Example 79, 2-{[4-(4-methylpiperazin-1-yl)phenyl]amino}-6-propyl-6H-pyrimido[5,4-c][2,1]benzothiazine-8-carboxamide 5,5-dioxide], the Ki is 6 nM.

For `C=CCN1c2ccccc2-c2nc(Nc3ccc(N4CCNCC4)c(F)c3)ncc2S1(=O)=O` [Example 31, 6-allyl-N-[3-fluoro-4-(piperazin-1-yl)phenyl]-6H-pyrimido[5,4-c][2,1]benzothiazin-2-amine 5,5-dioxide], the inhibitory constant (Ki) came out at 1.7 nM.

On to `C=CCN1c2c(C(=O)O)cccc2-c2nc(Nc3ccc(N4CCN(C)CC4)cc3)ncc2S1(=O)=O` [Example 59, 6-allyl-2-{[4-(4-methylpiperazin-1-yl)phenyl]amino}-6H-pyrimido[5,4-c][2,1]benzothiazine-7-carboxylic acid 5,5-dioxide], for which the inhibition constant (Ki) amounted to 141 nM.

Regarding `CCCN1c2cc(-c3cnc(N)nc3)ccc2-c2nc(Nc3ccc(N4CCN(C)CC4)cc3)ncc2S1(=O)=O` [Example 73, 8-(2-aminopyrimidin-5-yl)-N-[4-(4-methylpiperazin-1-yl)phenyl]-6-propyl-6H-pyrimido[5,4-c][2,1]benzothiazin-2-amine 5,5-dioxide], the inhibitory constant (Ki) is 3 nM.

As for `C=CCN1c2ncccc2-c2nc(Nc3ccc(N4CCCN(C)CC4)c(C)c3)ncc2S1(=O)=O` [Example 53, 6-allyl-N-[3-methyl-4-(4-methyl-1,4-diazepan-1-yl)phenyl]-6H-pyrido[2,3-c]pyrimido[4,5-e][1,2]thiazin-2-amine 5,5-dioxide], the inhibition constant (Ki) stood at 1.1 nM.

Consider `C=CCN1c2ncccc2-c2nc(Nc3ccc4c(c3)CNCC43CC3)ncc2S1(=O)=O` [Example 54, 6-allyl-N-(2′,3′-dihydro-1′H-spiro[cyclopropane-1,4′-isoquinolin]-7′-yl)-6H-pyrido[2,3-c]pyrimido[4,5-e][1,2]thiazin-2-amine 5,5-dioxide], for which the Ki is 1.2 nM.

For `C=CCN1c2ccccc2-c2nc(Nc3ccc4c(c3)N(C(C)=O)CC4)ncc2S1(=O)=O` [Example 5, 1-{6-[(6-allyl-5,5-dioxido-6H-pyrimido[5,4-c][2,1]benzothiazin-2-yl)amino]-2,3-dihydro-1H-indol-1-yl}ethanone], the inhibition constant Ki came out at 9 nM.

`C=CCN1c2ccccc2-c2nc(Nc3ccncc3)ncc2S1(=O)=O` [Example 27, 6-allyl-N-(pyridin-4-yl)-6H-pyrimido[5,4-c][2,1]benzothiazin-2-amine 5,5-dioxide]: the Ki was 30 nM.

In the case of `C=CCN1c2ncccc2-c2nc(Nc3ccc(C4CCNCC4)cc3)ncc2S1(=O)=O` [Example 37, 6-allyl-N-[4-(piperidin-4-yl)phenyl]-6H-pyrido[2,3-c]pyrimido[4,5-e][1,2]thiazin-2-amine 5,5-dioxide], the Ki worked out at 5 nM.

Turning to `CCCN1c2cc(-n3ccnc3)ccc2-c2nc(Nc3ccc(N4CCN(C)CC4)cc3)ncc2S1(=O)=O` [Example 92, 8-(1H-imidazol-1-yl)-N-[4-(4-methylpiperazin-1-yl)phenyl]-6-propyl-6H-pyrimido[5,4-c][2,1]benzothiazin-2-amine 5,5-dioxide], the inhibition constant Ki was determined as 14 nM.

For `CCCN1c2cc(-c3ccc(O)cc3)ccc2-c2nc(Nc3ccc(N4CCN(C)CC4)cc3)ncc2S1(=O)=O` [Example 75, 4-(2-{[4-(4-methylpiperazin-1-yl)phenyl]amino}-5,5-dioxido-6-propyl-6H-pyrimido[5,4-c][2,1]benzothiazin-8-yl)phenol], the inhibitory constant (Ki) worked out at 14 nM.

Consider `C=CCN1c2ccccc2-c2nc(Nc3ccc4c(c3)CN(C)CC43CC3)ncc2S1(=O)=O` [Example 28, 6-allyl-N-(2′-methyl-2′,3′-dihydro-1′H-spiro[cyclopropane-1,4′-isoquinolin]-7′-yl)-6H-pyrimido[5,4-c][2,1]benzothiazin-2-amine 5,5-dioxide], for which the Ki amounted to 1.1 nM.

On to `CCCN1c2cc(C(=O)NC)ccc2-c2nc(Nc3ccc(N4CCN(C)CC4)cc3)ncc2S1(=O)=O` [Example 82, N-methyl-2-{[4-(4-methylpiperazin-1-yl)phenyl]amino}-6-propyl-6H-pyrimido[5,4-c][2,1]benzothiazine-8-carboxamide 5,5-dioxide], for which the Ki came out at 10 nM.

For the compound `CCCN1c2cc(Br)ccc2-c2nc(Nc3ccc(N4CCN(C)CC4)cc3)ncc2S1(=O)=O` [Example 66, 8-bromo-N-[4-(4-methylpiperazin-1-yl)phenyl]-6-propyl-6H-pyrimido[5,4-c][2,1]benzothiazin-2-amine 5,5-dioxide], the Ki is 6 nM.

Regarding `C=CCN1c2ncccc2-c2nc(Nc3ccc(N4CCNCC4)c(C)c3)ncc2S1(=O)=O` [Example 42, 6-allyl-N-[3-methyl-4-(piperazin-1-yl)phenyl]-6H-pyrido[2,3-c]pyrimido[4,5-e][1,2]thiazin-2-amine 5,5-dioxide], the inhibitory constant (Ki) was found to be 2 nM.

Turning to `CCCN1c2cc(-c3ccsc3)ccc2-c2nc(Nc3ccc(N4CCN(C)CC4)cc3)ncc2S1(=O)=O` [Example 74, N-[4-(4-methylpiperazin-1-yl)phenyl]-6-propyl-8-(3-thienyl)-6H-pyrimido[5,4-c][2,1]benzothiazin-2-amine 5,5-dioxide], the Ki amounted to 20 nM.

Consider `C/C=C/N1c2ccccc2-c2nc(Nc3ccc(N4CCN(C)CC4)cc3)ncc2S1(=O)=O` [Example 2, N-[4-(4-methylpiperazin-1-yl)phenyl]-6-[(1E)-prop-1-en-1-yl]-6H-pyrimido[5,4-c][2,1]benzothiazin-2-amine 5,5-dioxide], for which the inhibitory constant (Ki) is 1.7 nM.

On to `C=CCN1c2ccccc2-c2nc(N)ncc2S1(=O)=O` [Example 29, 6-allyl-6H-pyrimido[5,4-c][2,1]benzothiazin-2-amine 5,5-dioxide], for which the inhibitory constant (Ki) was found to be 413 nM.

In the case of `C=CCN1c2ccccc2-c2nc(Nc3ccc(-c4ccncc4)cc3)ncc2S1(=O)=O` [Example 7, 6-allyl-N-[4-(pyridin-4-yl)phenyl]-6H-pyrimido[5,4-c][2,1]benzothiazin-2-amine 5,5-dioxide], the inhibitory constant (Ki) worked out at 1230 nM.

On to `CCCN1c2ccc(-c3ccccc3)cc2-c2nc(Nc3ccc(N4CCN(C)CC4)cc3)ncc2S1(=O)=O` [Example 97, N-[4-(4-methylpiperazin-1-yl)phenyl]-9-phenyl-6-propyl-6H-pyrimido[5,4-c][2,1]benzothiazin-2-amine 5,5-dioxide], for which the inhibition constant Ki worked out at 6 nM.

In the case of `CN1c2ccccc2-c2nc(Nc3ccc(CN4CCCC4)cc3)ncc2S1(=O)=O` [Example 58, 6-methyl-N-[4-(pyrrolidin-1-ylmethyl)phenyl]-6H-pyrimido[5,4-c][2,1]benzothiazin-2-amine 5,5-dioxide], the Ki was found to be 11 nM.

In the case of `C=CCN1c2ccccc2-c2nc(Nc3ccc(-c4nc5ccccc5[nH]4)cc3)ncc2S1(=O)=O` [Example 20, 6-allyl-N-[4-(1H-benzimidazol-2-yl)phenyl]-6H-pyrimido[5,4-c][2,1]benzothiazin-2-amine 5,5-dioxide], the Ki amounted to 283 nM.

For the compound `C=CCN1c2ncccc2-c2nc(Nc3ccc(C(=O)N4CCN(C)CC4)cc3)ncc2S1(=O)=O` [Example 43, {4-[(6-allyl-5,5-dioxido-6H-pyrido[2,3-c]pyrimido[4,5-e][1,2]thiazin-2-yl)amino]phenyl}(4-methylpiperazin-1-yl)methanone], the Ki is 56 nM.
